The source made the active and inactive calls. No cut-off for these calls is given here.

Type in all cases: nucleic-acid assay
Assay [1] concerns Nucleic Acid. In words: Binding affinity to 5'-AATAC-3' sequence of Escherichia coli 158-mer duplex pBR322 fragment at 10 to 2000 nM after 60 mins by DNase I footprinting.
Assay [2] deals with Nucleic Acid. In words: Binding affinity to 11-mer duplex 4A-4T DNA at 0.2 to 7 uM after 60 mins by circular dichroism spectroscopy. Background: CD spectra are sensitive to the conformation of chiral molecules.
Assay [3] deals with Nucleic Acid. In words: Binding affinity to 11-mer duplex 3A-3T DNA minor groove at peptide to duplex ratio of 2:1 after 60 mins by circular dichroism spectroscopy.
Assay [4] has as its system Nucleic Acid. The assay is described as follows: Binding affinity to 5'-AATAC-3' sequence of Escherichia coli 158-mer duplex pBR322 fragment after 60 mins by DNase I footprinting.
In assay [5] the test system is Nucleic Acid. The assay is described as follows: Binding affinity to d(AAAA)-d(TTTT) sequence of Escherichia coli 158-mer duplex pBR322 fragment assessed as allosteric interaction after 60 mins by DNase I footprinting.
In assay [6] the test system is Nucleic Acid. In words: Binding affinity to 5'-TTTCTCCT-3' sequence of Escherichia coli 135-mer duplex pBR322 fragment after 60 mins by DNase I footprinting.
The test system of assay [7] is Nucleic Acid. The assay is described as follows: Binding affinity to 5'-AGAAAATAC-3' sequence of Escherichia coli 158-mer duplex pBR322 fragment at 10 to 2000 nM after 60 mins by DNase I footprinting.
Assay [8] has as its system Nucleic Acid. In words: Binding affinity to 5'-TTTCT-3' sequence of Escherichia coli 81-mer duplex pBR322 fragment after 60 mins by DNase I footprinting.
In assay [9] the test system is Nucleic Acid. In words: Binding affinity to 11-mer duplex 4A-4T DNA minor groove at peptide to duplex ratio of 2:1 after 60 mins by circular dichroism spectroscopy.
Assay [10] concerns Nucleic Acid. The assay is described as follows: Binding affinity to 5'-TTTCTCCT-3' sequence of Escherichia coli 135-mer duplex pBR322 fragment at 50 to 2000 nM after 60 mins by DNase I footprinting.
The subject of assay [11] is Nucleic Acid. In words: Binding affinity to 5'-AAAAT-3' sequence of Escherichia coli 81-mer duplex pBR322 fragment after 60 mins by DNase I footprinting.
Assay [12] deals with Nucleic Acid. The assay is described as follows: Binding affinity to 11-mer duplex 3A-3T DNA at 0.2 to 7 uM after 60 mins by circular dichroism spectroscopy.
For assay [13], the system named is Nucleic Acid. In words: Binding affinity to d(AAA)-d(TTT) sequence of Escherichia coli 135-mer duplex pBR322 fragment assessed as allosteric interaction after 60 mins by DNase I footprinting.
For assay [14], the system named is Nucleic Acid. The assay is described as follows: Binding affinity to 5'-AGAAAATAC-3' sequence of Escherichia coli 158-mer duplex pBR322 fragment after 60 mins by DNase I footprinting.
Assay [15] relates to Nucleic Acid. In words: Binding affinity to 5'-TT-3' sequence of Escherichia coli 135-mer duplex pBR322 fragment at 50 to 2000 nM after 60 mins by DNase I footprinting.
In assay [16] the test system is Nucleic Acid. In words: Binding affinity to 5'-TT-3' sequence of Escherichia coli 135-mer duplex pBR322 fragment after 60 mins by DNase I footprinting.
Assay [17] has as its system Nucleic Acid. The assay is described as follows: Binding affinity to 5'-TT-3' sequence of Escherichia coli 135-mer duplex pBR322 fragment at 1 to 3000 nM after 60 mins by DNase I footprinting.
The subject of assay [18] is Nucleic Acid. The assay is described as follows: Binding affinity to 11-mer duplex 4A-4T DNA after 60 mins by circular dichroism spectroscopy.
Assay [19] relates to Nucleic Acid. The assay is described as follows: Binding affinity to 5'-GAAAATA-3' sequence of Escherichia coli 158-mer duplex pBR322 fragment at 1 to 3000 nM after 60 mins by DNase I footprinting.
Assay [20] has as its system Nucleic Acid. In words: Binding affinity to 5'-TTTTCTCCT-3' sequence of Escherichia coli 135-mer duplex pBR322 fragment at 1 to 3000 nM after 60 mins by DNase I footprinting.
Assay [21] has as its system Nucleic Acid. In words: Binding affinity to 11-mer duplex 4A-4T DNA at 0.2 uM after 60 mins by circular dichroism spectroscopy.
In assay [22] the test system is Nucleic Acid. In words: Binding affinity to 5'-TTTTCTCCT-3' sequence of Escherichia coli 135-mer duplex pBR322 fragment after 60 mins by DNase I footprinting.
The subject of assay [23] is Nucleic Acid. The assay is described as follows: Binding affinity to 5'-AATACC-3' sequence of Escherichia coli 158-mer duplex pBR322 fragment at 1 to 3000 nM after 60 mins by DNase I footprinting.
For assay [24], the system named is Nucleic Acid. The assay is described as follows: Binding affinity to 5'-AATACC-3' sequence of Escherichia coli 158-mer duplex pBR322 fragment after 60 mins by DNase I footprinting.
Assay [25] has as its system Nucleic Acid. The assay is described as follows: Binding affinity to 5'-TTTTCTC-3' sequence of Escherichia coli 81-mer duplex pBR322 fragment after 60 mins by DNase I footprinting.
Assay [26] deals with Nucleic Acid. In words: Binding affinity to 5'-GAAAATA-3' sequence of Escherichia coli 158-mer duplex pBR322 fragment after 60 mins by DNase I footprinting.
Assay [27] deals with Nucleic Acid. The assay is described as follows: Binding affinity to 5'-TTT-3' sequence of Escherichia coli 135-mer duplex pBR322 fragment after 60 mins by DNase I footprinting.
Assay [28] relates to Nucleic Acid. The assay is described as follows: Binding affinity to 5'-AATACCG-3' sequence of Escherichia coli 158-mer duplex pBR322 fragment at 1 to 3000 nM after 60 mins by DNase I footprinting.
The subject of assay [29] is Nucleic Acid. The assay is described as follows: Binding affinity to 5'-TTT-3' sequence of Escherichia coli 135-mer duplex pBR322 fragment at 12 nM after 60 mins by DNase I footprinting.
The subject of assay [30] is Nucleic Acid. The assay is described as follows: Binding affinity to 5'-TTTCTCC-3' sequence of Escherichia coli 135-mer duplex pBR322 fragment after 60 mins by DNase I footprinting.
Assay [31] concerns Nucleic Acid. The assay is described as follows: Binding affinity to 5'-AATACCG-3' sequence of Escherichia coli 158-mer duplex pBR322 fragment after 60 mins by DNase I footprinting.
Assay [32] has as its system Nucleic Acid. In words: Binding affinity to 5'-AGAAAATACCG-3' sequence of Escherichia coli 158-mer duplex pBR322 fragment after 60 mins by DNase I footprinting.
Assay [33] deals with Nucleic Acid. The assay is described as follows: Binding affinity to 5'-AGAAAATACCG-3' sequence of Escherichia coli 158-mer duplex pBR322 fragment at 1 to 3000 nM after 60 mins by DNase I footprinting.
For assay [34], the system named is Nucleic Acid. In words: Binding affinity to 5'-TTTCTCC-3' sequence of Escherichia coli 135-mer duplex pBR322 fragment at 1 to 3000 nM after 60 mins by DNase I footprinting.

`Cn1cc(NC(=O)c2cc(NC(=O)[C@@H](CCCCN)NC(=O)[C@H](CCCNC(=N)N)NC(=O)[C@@H]3C[C@@H](O)CN3C(=O)[C@@H](N)Cc3cnc[nH]3)cn2C)cc1C(=O)Nc1cc(C(=O)Nc2cc(C(=O)N[C@@H](Cc3cnc[nH]3)C(=O)N3C[C@H](O)C[C@H]3C(=O)N[C@@H](CCCNC(=N)N)C(=O)N[C@@H](CCCCN)C(N)=O)n(C)c2)n(C)c1`: the outcome with Nucleic Acid [1], in the assay with Nucleic Acid [2], with Nucleic Acid [3], in the assay on Nucleic Acid [5], with Nucleic Acid [7] and in the assay with Nucleic Acid [9] was Active. For the same molecule, the outcome in the assay on Nucleic Acid [10], in the assay on Nucleic Acid [12] and in the assay on Nucleic Acid [13] was Active. Besides, the Ka with Nucleic Acid [4] is 2.5 ×10⁶ /M; in the assay with Nucleic Acid [6], 3.4 ×10⁶ /M; with Nucleic Acid [8], 2.5 ×10⁶ /M; in the assay with Nucleic Acid [11], 1.4 ×10⁶ /M; with Nucleic Acid [14], 3.4 ×10⁶ /M.

For the molecule `Cn1cc(NC(=O)c2cc(NC(=O)[C@@H](CCCCN)NC(=O)[C@H](CCCNC(=N)N)NC(=O)[C@@H]3C[C@@H](O)CN3C(=O)[C@@H](N)Cc3cnc[nH]3)cn2C)cc1C(=O)Nc1cc(C(=O)N[C@@H](CCCCN)C(=O)N[C@@H](CCCNC(=N)N)C(N)=O)n(C)c1`, the result in the assay with Nucleic Acid [3], with Nucleic Acid [5], in the assay with Nucleic Acid [17], in the assay on Nucleic Acid [9], in the assay with Nucleic Acid [19] and with Nucleic Acid [20] was Active. Also, the result in the assay on Nucleic Acid [21], in the assay on Nucleic Acid [12], in the assay with Nucleic Acid [23] and in the assay on Nucleic Acid [13] was Active. The result in the assay with Nucleic Acid [15] was inactive. Further, the Ka in the assay on Nucleic Acid [16] worked out at 2.7 ×10⁶ /M; in the assay on Nucleic Acid [11], 2.1 ×10⁶ /M; in the assay with Nucleic Acid [22] it was 2.2 ×10⁶ /M; with Nucleic Acid [24] it was 2.5 ×10⁶ /M; in the assay on Nucleic Acid [25], 1.9 ×10⁶ /M; in the assay with Nucleic Acid [26] it was 3.8 ×10⁶ /M. The Activity entry in the assay with Nucleic Acid [18] was “Dose-dependent effect”.

Take `Cn1cc(NC(=O)c2cc(NC(=O)[C@@H](CCCCN)NC(=O)[C@H](CCCNC(=N)N)NC(=O)[C@@H]3CCCN3C(=O)[C@@H](N)Cc3cnc[nH]3)cn2C)cc1C(=O)Nc1cc(C(=O)Nc2cc(C(=O)N[C@@H](Cc3cnc[nH]3)C(=O)N3CCC[C@H]3C(=O)N[C@@H](CCCNC(=N)N)C(=O)N[C@@H](CCCCN)C(N)=O)n(C)c2)n(C)c1`: the Ka in the assay on Nucleic Acid [27] came to 3.7 ×10⁶ /M; in the assay with Nucleic Acid [30] it was 3.8 ×10⁶ /M; in the assay on Nucleic Acid [31] it was 6.7 ×10⁷ /M; in the assay with Nucleic Acid [32] it was 3.2 ×10⁶ /M. In addition, the result with Nucleic Acid [5], in the assay on Nucleic Acid [28], in the assay with Nucleic Acid [29], in the assay with Nucleic Acid [33], in the assay on Nucleic Acid [13] and with Nucleic Acid [34] was Active.
